From patent US8329656B2, “Use of a PDE5 inhibitor for treating and preventing hypopigmentary disorders” (Switch Biotech AG, priority 2004, dated 2012)
Entries after “also recorded” stand apart in the source; their conditions may differ.

Test system: human melanoma cell line (Mel-Ho)
Assay: Melanocyte dendrite outgrowth assay
Type: cell-based
Details: Mel-Ho cells; for induction of melanocyte dendricity (in words): different concentrations, 24 hours
Source text: A possibility to test the effect of a compound on melanocyte function as a measure for pigmentation, the melanocyte dendrite outgrowth assay can be performed. Vitiligo melanocytes for example have only stubby dendrites. Increasing dendricity as a prerequisite for the transfer of the melanosomes from melanocytes to the surrounding keratinocytes rescues this defect. For this assay, cells from a human melanoma cell line (Mel-Ho) were obtained from DSMZ (Deutsche Sammlung für Mikroorganismen and Zellkulturen) and were cultured according to the protocol provided by DSMZ. In short, after thawing the melanocytes were cultured in T-75 flasks in melanocyte culture media (provided by the manufacturer) until they reach 70-80% confluency. The melanocytes were then trypsinized, transferred into 5-10 new T-75 flasks, and grown again to same confluency as described above. After this expansion step the melanocytes were immediately used for the Melanocyte Dendrite Outgrowth Assay or were frozen for later use. For the assay, the melanocytes were seeded in 24 well plates at a density of 1-5×10^4 cells/well. After 24 hours, the melanocytes were treated with 100 μM IBMX (Sigma-Aldrich) or different concentrations of Sildenafil and Tadalafil for 24 hours. IBMX (=3-isobutyl-1-methylxanthin) is known to cause increased melanocyte dendricity and was used as a positive control. Cells treated with media only were used as a negative control. Melanocyte dendrite outgrowth was documented by digital photography (Canon G2 Powershot) after 3, 6 and 24 hours. In addition, melanocyte dendricity was scored by 3 blinded individuals after 24 hours. The score ranges from 1 to 4; 1 representing melanocytes with no dendrites and 4 representing melanocytes with many long and branched dendrites. […] 10 μM Sildenafil was used to obtain an score of >3, however also lower concentrations (down to 10 nM) of Sildenafil was sufficient to induce dendrite formation. The experiment was performed as described in Example 1, however using Tadalafil as active component.

| Structure (SMILES) | induction of melanocyte dendricity (in words) | concentration sufficient to induce dendrite formation (lower concentrations than 10 μM) [nM] |
| --- | --- | --- |
| CCCc1nn(C)c2c(=O)[nH]c(-c3cc(S(=O)(=O)N4CCN(C)CC4)ccc3OCC)nc12 [Sildenafil, 5-[2-Ethoxy-5-(4-methyl-1-piperazinylsulfonyl)phenyl]-1-methyl-3-n-propyl-1,6-dihydro-7H-pyrazolo[4,3-d]pyrimidin-7-one] | strongly increased dendricity | ≥ 10 |
| CN1CC(=O)N2C(Cc3c([nH]c4ccccc34)[C@H]2c2ccc3c(c2)OCO3)C1=O (stereo partly drawn) [Tadalafil, (6R,12aR)-2,3,6,7,12,12a-hexahydro-2-methyl-6-(3,4-methylenedioxyphenyl)pyrazino[1′,2′:1,6]pyrido[3,4-b]indole-1,4-dione] | very similar to the results obtained with Sildenafil; also recorded: effectively induces dendricity; also recorded: strongly increased dendricity | – |
